Type: physicochemical
Protocol: The stability and robustness of the technetium-di(pyridine) complexes was assessed using challenges with free cysteine and histidine. Specifically, the experiments were performed using [^99mTc(CO)3(dipyridinemethylamine)]^+1.
[^99mTc(CO)3(H2O)3]^+ was heated with [{N,N-di(pyridyl-2-methyl)}N-butyl-phthalimide in 0.5 mL (1 mg/mL) of methanol at 100° C. for 60 minutes. […] The product eluted with methanol at 20.8 minutes. The HPLC analysis was performed using a Supelco C18 column, 25 cm×4.6 mm column (5 μm pore size), equipped with 2 cm guard using solvent A=0.05 M triethylammonium phosphate buffer pH 2.5 and solvent B=methanol. The method employed was a gradient 5-95% B, 1 mL/minute for 30 minutes. The gradient ramped from 5-95 from 3-20 minutes.

[^99mTc(CO)3(dipyridinemethylamine)]^+1
stability in challenges with free cysteine and histidine: stable
change in the components by HPLC on incubation with cysteine (aqueous solution, cysteine, 18 hours at 37° C. at pH 7.4): no significant change
